# System: S. Typhimurium PhoP-promoter GFP reporter counterscreen, fluorescence, 4 h
# Assay: S. Typhimurium GFP fluorescence modified counterscreen for PhoP regulon inhibitor project dose response (AID 1981)
row,Compound,IC50 [µM]
1,CCn1cc(C(=O)NCCN(C)C)c(=O)c2cc(F)c(N3CCN(C)CC3)cc21,123
2,CCn1cc(C(=O)O)c(=O)c2cc(F)c(N3CCN(C(=S)NC(=O)c4ccccc4F)CC3)cc21,79.4
3,CN(C)C1C(=O)C(C(N)=O)=C(O)C2(O)C(=O)C3=C(O)c4c(O)cccc4C(C)(O)C3C(O)C12 (stereo not drawn),1.35
4,O=C1c2ccccc2C(=O)N1c1cccc(-c2csc(Nc3ccc4c(c3)OCO4)n2)c1,128
5,CC(C(=O)NC1C=CS(=O)(=O)C1)N1C(=O)/C(=C/c2ccc(Cl)cc2)SC1=S (stereo not drawn),141
6,O=C(NC(CO)C(O)c1ccc([N+](=O)[O-])cc1)C(Cl)Cl (stereo not drawn),9.17
7,Oc1c(CN2CCN(c3ccc(F)cc3)CC2)cc(Cl)c2cccnc12,32
8,C=CC#CC[N+]1(CC#Cc2ccccc2)CCOCC1,30.3
9,CN(C)CCCNc1cc(C(C)(C)C)nc2c(-c3ccccc3)cnn12,83.5
10,CNC[C@H](Cc1ccccc1)NC[C@@H](Cc1cccc2ccccc12)NCCc1ccc(C)cc1,29.9
11,CCCCCCCCCCCCCCCC[N+](C)(C)CCN(Cc1ccc(OC)cc1)c1ncccn1,24.2
12,CC(=O)NC(c1cccc([N+](=O)[O-])c1)c1ccc2cccnc2c1O (stereo not drawn),72.5
13,O=C(N/N=C/c1ccc(O)cc1O)C(=O)N/N=C/c1ccc(O)cc1O,51
14,C1=C(CCNCc2ccccc2)CCCC1,9.75
15,CCOC(=O)C[n+]1c(C)sc2ccc(OC)cc21,133
16,N=c1n(CC(=O)c2ccc(Br)s2)c2ccccc2n1Cc1ccccc1,131
17,Clc1cc(Br)ccc1OCCCNCc1ccccc1,83.4
18,COc1ccccc1CNCCc1ccc(F)cc1,61.4
19,CN1CCN(C(c2ccc(Cl)cc2)c2cc(Cl)c3cccnc3c2O)CC1 (stereo not drawn),32.9
20,CCCCCCCCCCCCCCCC[N+](C)(C)CC,24.9
21,O=C(Nc1nc(-c2ccccn2)cs1)c1ccc(Cl)s1,27.8
22,OCc1ccc(O)c2ncccc12,146
23,COc1c(N2CCN(C(=S)NC3CC4CCC3C4)C(C)C2)c(F)cc2c(=O)c(C(=O)O)cn(C3CC3)c12 (stereo not drawn),5.38

row,Compound,IC50 [µM]
1,CC(Cc1ccccc1)NCc1ccccc1O (stereo not drawn),63.8
2,CCn1nc(C(=O)O)c(=O)c2cc3c(cc21)OCO3,52.1
3,O=C(Oc1ccc[nH]c1=O)c1cc([N+](=O)[O-])cc([N+](=O)[O-])c1,79.7
4,Oc1cccc(C=NCc2ccccc2)c1O,109
5,O=C1NN(c2ccccc2)C(=O)/C1=C\c1coc2ccc(O)cc2c1=O,81.9
6,CS(=O)(=O)c1ccc([C@@H](O)[C@@H](CF)NC(=O)C(Cl)Cl)cc1,7.98
7,NC1=NC2(CCCCC2)N=C(Nc2ccc(Br)cc2)N1,138
8,Oc1c(CN2CCCCC2)cc(COCc2ccccc2)c2cccnc12,85.6
9,CCCCCNCC(=O)Nc1cccc(C(=O)Nc2cccc(C(F)(F)F)c2)c1,135
10,Clc1ccc(OCCCNCc2ccccc2)c(Br)c1,71.8
11,CCCCOc1ccc(Br)cc1CSC(=N)N,97.8
12,NCC12CC3CC(C1)CC(c1ccc(Br)cc1)(C3)C2,55.2
13,CCN(CC(=O)NC(C)(C)C)C(=O)COc1c(Cl)cc(Cl)c2ccc(C)nc12,136
14,Cc1ccc(C(c2cc(Cl)c3cccnc3c2O)N2CCN(C)CC2)cc1 (stereo not drawn),41.1
15,O=C(N/N=C\c1cccc([N+](=O)[O-])c1O)C1COc2ccccc2O1 (stereo not drawn),96
16,CCn1cc(C(=O)NCC(C)C)c(=O)c2cc(F)c(N3CCN(C)CC3)cc21,72.6
17,CC[C@@H](C)[C@H](CNC)NC[C@@H](Cc1cccc2ccccc12)NCCc1cccc(C(F)(F)F)c1,39.9
18,CC(C)C(=O)NC(c1cccc([N+](=O)[O-])c1)c1ccc2cccnc2c1O (stereo not drawn),23.3
19,O=c1c(O)cccc2cc(O)c(O)c(O)c12,18.2
20,CCCCCCCCCCOC(=O)Cn1c(COc2ccc(Cl)cc2)[n+](C)c2ccccc21,26.7
21,O=c1[nH][nH]c(-c2ccccc2O)c1C(C[N+](=O)[O-])c1ccc(Br)cc1 (stereo not drawn),66.5
22,O=C(N/N=C/c1ccc(Sc2ccccn2)o1)c1cc2ccccc2cc1O,110
23,Cc1cc(C)c2ccc(N)nc2c1O,49.9

row,Compound,IC50 [µM]
1,CN1CCN(C(c2ccccn2)c2cc(Cl)c3cccnc3c2O)CC1 (stereo not drawn),67.3
2,CCCCCCNC(=O)c1cn(CC)c2cc(N3CCN(C)CC3)c(F)cc2c1=O,32
3,CC(=O)NC(c1cccs1)c1cc([N+](=O)[O-])c2cccnc2c1O (stereo not drawn),35.5
4,COc1ccc(Nc2cc(C)c3c(O)cccc3n2)cc1,70
5,CNC(=S)N1CCN(c2c(F)cc3c(=O)c(C(=O)O)cn(C4CC4)c3c2OC)CC1C (stereo not drawn),15.2
6,CCCC(=O)NC(c1ccc(Cl)cc1)c1ccc2cccnc2c1O (stereo not drawn),62.3
7,Cc1nc(NC(=O)c2ccccc2)sc1-c1csc(Nc2ccc(F)cc2)n1,86.4
8,Oc1c(CN2CCc3ccccc3C2)cc(Cl)c2cccnc12,7.36
9,C=CCNc1ncnc2c1[nH]c1ccccc12,106
10,NC1=NC[C@@H](Cc2ccc(O)cc2)N1CCCCC1CCCCC1,40.2
11,CCOc1cc(/C=N/N=C(N)N)ccc1OCc1ccc(Cl)cc1,56.8
12,O=C(N/N=C/c1ccc([N+](=O)[O-])o1)c1ccc(O)cc1,21
13,C[C@H]1O[C@@H](n2cc(F)c(=O)[nH]c2=O)[C@H](O)[C@@H]1O,11.8
14,OC(c1cc(-c2ccc(C(F)(F)F)cc2)nc(C(F)(F)F)c1)C1CCCCN1 (stereo not drawn),42.2
15,CCc1ccc(NC(=O)C[n+]2cc(-c3ccc(C)cc3)n3c2CCC3)cc1,146
16,C/C(=N\Nc1nc2ccccc2[nH]1)c1ccccn1,29.3
17,CCCc1nnc(NC(=O)c2cn(CC)c3cc(N4CCN(C)CC4)c(F)cc3c2=O)s1,109
18,Oc1ccc(Cl)cc1Cc1cc(Cl)ccc1O,57
19,Cc1ccc(C(C[N+](=O)[O-])c2c(N)n(C)c(=O)n(C)c2=O)cc1 (stereo not drawn),18.4
20,COc1ccc(CNC[C@@H](CCCCN(C)Cc2ccc(OC)cc2)N2C[C@H](c3ccccc3)N(CCc3ccc(Cl)c(Cl)c3)C(=O)C2=O)cc1,108
21,C=C1c2c(Cl)ccc(O)c2C(O)=C2C(=O)[C@]3(O)C(O)=C(C(N)=O)C(=O)[C@@H](N(C)C)[C@@H]3[C@@H](O)C12 (stereo partly drawn),0.94
22,O=C(Nc1ccccc1)Oc1ccc[nH]c1=O,80.6
23,CNc1cc(Cl)c2nonc2c1[N+](=O)[O-],115

row,Compound,IC50 [µM]
1,CN(C)c1ccc(/C=C/c2ccc3c4ccccc4ccc3[n+]2-c2ccccc2)cc1,18.8
2,Oc1ccc(N2CCN(Cc3ccc(OCCCN4CCCCC4)cc3)CC2)cc1,110
3,Cc1ccc(C)n1-c1cc(S(=O)(=O)N2CCOCC2)ccc1N1CCCC1,138
4,Cc1ccc(S(=O)(=O)/N=C2/C=C(Sc3ncn[nH]3)C(=O)c3ccccc32)c(C)c1,56.1
5,O=C(Nc1nnc(-c2cccs2)o1)c1cccc(Oc2ccccc2)c1,54.6
6,COc1ccc(OCc2n(CC(=O)OC3CC(C)CCC3C(C)C)c3ccccc3[n+]2C)cc1 (stereo not drawn),113
7,CCn1cc(C(=O)O)c(=O)c2cc(F)c(N3CCN(C)CC3)cc21,1.46
8,CN(C)c1ccc(O)c2c1CC1CC3[C@@H](N(C)C)C(=O)C(C(N)=O)=C(O)[C@]3(O)C(=O)C1=C2O (stereo partly drawn),1.54
9,C/C(=N\Nc1ncnc2sc(C)c(C)c12)c1ccccn1,33.4
10,Cc1cccc(Nc2nc(NCc3ccco3)c3ccccc3n2)c1,37.9
11,C[C@H]1c2cccc(O)c2C(O)=C2C(=O)[C@]3(O)C(O)=C(C(N)=O)C(=O)[C@@H](N(C)C)C3[C@@H](O)C21 (stereo partly drawn),1.31
12,CCCCCOc1ccc(Br)cc1CSC(=N)N,41.4
13,FC(F)(F)c1ccc2c(c1)N(CCCN1CCN(CCCl)CC1)c1ccccc1S2,146
14,Cc1ccc(C(=O)Sc2cccccc2=O)cc1,16.5
15,Nc1nonc1-n1nnc(C(=O)N/N=C/c2cc(Br)ccc2O)c1CSC1=NCCS1,145
16,Nc1cc2nsnc2cc1Br,30.1
17,CN(C)S(=O)(=O)c1cccc(NC(=S)N/N=C/c2cc(Br)ccc2O)c1,54.7
18,Nc1c(Cl)ncnc1N/N=C/c1ccccn1,32.2
19,CCCCCCCNC(=O)C1(CC2CC(c3ccc(Cl)cc3)=NO2)CCNCC1 (stereo not drawn),47.8
20,Nc1nc(F)nc2c1ncn2[C@@H]1O[C@H](CO)[C@@H](O)[C@H]1O,18.3
21,COc1cc([N+](=O)[O-])cc(/C=N\NC(=O)C2COc3ccccc3O2)c1O (stereo not drawn),141
22,O=S1(=O)CCC(NC(=S)SCCOc2ccccc2)C1 (stereo not drawn),86.5
23,NC1=NC[C@H](c2ccccc2)N1CCCCC1CCCCC1,66

row,Compound,IC50 [µM]
1,COc1c(N2CCNC(C)C2)c(F)cc2c(=O)c(C(=O)O)cn(C3CC3)c12 (stereo not drawn),0.44
2,CCC(C)NC(=O)c1cn(CC)c2cc(N3CCN(C)CC3)c(F)cc2c1=O (stereo not drawn),59
3,CCn1cc(C(=O)O)c(=O)c2cc(F)c(N3CCN(C(=S)NC(=O)c4ccccc4C)CC3)cc21,22.2
4,CCCCCCCCCCCCCCCC[n+]1cccc(C(=O)N(CC)CC)c1,29.6
5,O=C(Nc1cccc(N=Cc2cc(Br)cc(Br)c2O)c1)c1ccco1,119
6,O=C1C(SCCO)=C(SCCO)C(=O)c2ccccc21,64.9
7,O=C(N/N=C/c1cc(O)ccc1Br)c1cccnc1,43.5
8,COc1ccc(C(=O)N/N=C/c2sc3ccccc3c2O)cc1,109
9,O=[N+]([O-])c1cc(Cl)c2cccnc2c1O,1.96
10,CC(C)NC1=C(Cl)C(=O)c2ccccc2C1=O,59.4
11,Cc1cccc(Nc2cc(C)c3c(O)cccc3n2)c1C,82.7
12,CC1CCc2cc(F)cc3c(=O)c(C(=O)O)cn1c23 (stereo not drawn),13.5
13,Cc1conc1NC(c1cccs1)c1ccc2cccnc2c1O (stereo not drawn),36.8
14,CCn1cc(C(=O)O)c(=O)c2cc(F)c(N3CCN(C(=S)NC(=O)c4cccc(F)c4)CC3)cc21,35.1
15,CCOC(=O)c1ccc(-c2ccc(C3Nc4ccccc4C(=O)N3O)o2)cc1 (stereo not drawn),112
16,Cc1ccccc1OCc1n(CC(=O)OC2CC(C)CCC2C(C)C)c2ccccc2[n+]1C (stereo not drawn),80.1
17,Clc1ccc(Cl)c(OCCCCNCc2ccccc2)c1,131
18,CCn1cc(C(=O)O)c(=O)c2cc(F)c(N3CCN(C(=S)NC(=O)c4ccccc4)CC3)cc21,13.8
19,CCn1cc(C(=O)O)c(=O)c2cc(F)c(N3CCN(C(=S)NC(=O)c4ccc(OC)cc4)CC3)cc21,13.4
20,O=c1[nH]c2ccccc2n2c(=S)[nH]nc12,29.1
21,C/C(=C\C(=O)OCCCCCCCCC(=O)O)C[C@@H]1OC[C@H](C[C@@H]2O[C@H]2[C@@H](C)[C@H](C)O)[C@@H](O)[C@H]1O,14.1
